Measurements taken from patent publication US4760136A, “Chartreusin derivatives and salts thereof” (Ishihara Sangyo Kaisha, Ltd., priority 1984, dated 1988).

What was measured:
[1] = Acute toxicity, intravenous (once), ddY mice; format: in vivo; details: mouse, in vivo, iv, formulated per Preparation Example
Text: In Table 7 are shown acute toxicity values (LD50, mg/kg) in ddY mice in the case of intravenously administering (once) each of the compounds of this invention in the form of preparations shown in the Preparation Examples shown in Table 7.

P-388 leukemia cells = assay: Antitumor activity: P-388 leukemia cells inoculated intraperitoneally, drug administered intravenously, BDF1 mice; format: in vivo; details: BDF1 mice, P-388 i.p.; for response vs control in vivo at 80 mg/kg: dose f: 80 mg/kg × 3, i.v. on days 1, 5 and 9; for response vs control in vivo at 20 mg/kg: dose b: 20 mg/kg × 3, i.v. on days 1, 5 and 9; for response vs control in vivo at 50 mg/kg: dose d: 50 mg/kg × 3, i.v. on days 1, 5 and 9; for response vs control in vivo at 160 mg/kg: dose i: 160 mg/kg × 3, i.v. on days 1, 5 and 9; for response vs control in vivo at 10 mg/kg: dose a: 10 mg/kg × 3, i.v. on days 1, 5 and 9
In short: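 Drug dosing was intravenous on the first, fifth and ninth days after intraperitoneal inoculation of P-388 leukemia cells (1×10^6 per mouse) into BDF1 mice. Vehicles were physiological saline alone, or saline with small amounts of sodium carboxymethyl cellulose or Tween-80.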

[2] = Mus musculus, P388, iv, read-out: T/C (%) of MST
[3] = Mus musculus, P388, iv, dose c: 40 mg/kg × 3, i.v. on days 1, 5 and 9, read-out: T/C (%) of MST

Row | SMILES | LD50 [1] [mg/kg] | response vs control in vivo at 80 mg/kg (P-388 leukemia cells; [2]) [%] | response vs control in vivo at 40 mg/kg (P-388 leukemia cells; [3]) [%] | also measured
1 | COC1C(O)C(C)OC(OC2C(Oc3cccc4c(OC(=O)CCCCCCCNC(=O)C(F)(F)F)c5c(=O)oc6ccc(C)c7c(=O)oc(c34)c5c67)OC(C)C3OC(C)(C)OC32)C1O (stereo not shown) [compound 99] | ≥ 100 | 136 | – | –
2 | CCC1OC2C(C)OC(Oc3cccc4c(OC(=O)CCNC(=O)C(F)(F)F)c5c(=O)oc6ccc(C)c7c(=O)oc(c34)c5c67)C(OC3OC(C)C(O)C(OC)C3O)C2O1 (stereo not shown) [compound 100] | ≥ 180 | 157 | – | –
3 | COC1C(O)C(C)OC(OC2C(Oc3cccc4c(OC(=O)C(Cc5c[nH]c6ccccc56)NC(=O)OCc5ccccc5)c5c(=O)oc6ccc(C)c7c(=O)oc(c34)c5c67)OC(C)C3OC(c4cccc(C(F)(F)F)c4)OC32)C1O (stereo not shown) [compound 101] | ≥ 80 | 225 | 171 | –
4 | COC1C(O)C(C)OC(OC2C(Oc3cccc4c(OC(=O)C(CC[S+](C)[O-])NC(=O)OCc5ccccc5)c5c(=O)oc6ccc(C)c7c(=O)oc(c34)c5c67)OC(C)C3OC(C)(C)OC32)C1O (stereo not shown) [compound 102] | ≥ 100 | 187 | – | –
5 | COC1C(O)C(C)OC(OC2C(Oc3cccc4c(OC(=O)C(NC(=O)OCc5ccccc5)C(C)C)c5c(=O)oc6ccc(C)c7c(=O)oc(c34)c5c67)OC(C)C3OC(c4ccccc4Cl)OC32)C1O (stereo not shown) [compound 105] | ≥ 80 | 216 | – | –
6 | COC1C(O)C(C)OC(OC2C(Oc3cccc4c(OC(=O)C(NC(=O)OCc5ccccc5)C(C)C)c5c(=O)oc6ccc(C)c7c(=O)oc(c34)c5c67)OC(C)C3OC(c4ccccc4)OC32)C1O (stereo not shown) [compound 106] | ≥ 40 | – | – | response vs control in vivo at 20 mg/kg (P-388 leukemia cells; [2]): 173%
7 | COC1C(O)C(C)OC(OC2C(Oc3cccc4c(OC(=O)CCNC(=O)OCc5ccccc5)c5c(=O)oc6ccc(C)c7c(=O)oc(c34)c5c67)OC(C)C3OC(C)(C)OC32)C1O (stereo not shown) [compound 107] | ≥ 100 | 185 | 139 | –
8 | COC1C(O)C(C)OC(OC2C(Oc3cccc4c(OC(=O)CNC(=O)OCc5ccccc5)c5c(=O)oc6ccc(C)c7c(=O)oc(c34)c5c67)OC(C)C3OC(C)(C)OC32)C1O (stereo not shown) [compound 108, 6-O-(N-carbobenzyloxyglycyl)-3',4'-O-isopropylidene-chartreusin] | ≥ 100 | – | – | response vs control in vivo at 50 mg/kg (P-388 leukemia cells; [2]): 163%
9 | COC1C(O)C(C)OC(OC2C(Oc3cccc4c(OC(=O)CCCNC(=O)OCc5ccccc5)c5c(=O)oc6ccc(C)c7c(=O)oc(c34)c5c67)OC(C)C3OC(C)(C)OC32)C1O (stereo not shown) [compound 109] | ≥ 100 | – | – | response vs control in vivo at 60 mg/kg (P-388 leukemia cells; Mus musculus, P388, iv, dose e: 60 mg/kg × 3, i.v. on days 1, 5 and 9, read-out: T/C (%) of MST): 145%
10 | COC1C(O)C(C)OC(OC2C(Oc3cccc4c(OC(=O)CCNC=O)c5c(=O)oc6ccc(C)c7c(=O)oc(c34)c5c67)OC(C)C3OC(c4c(F)c(F)c(F)c(F)c4F)OC32)C1O (stereo not shown) [compound 113] | ≥ 40 | – | 138 | –
11 | COC1C(O)C(C)OC(OC2C(Oc3cccc4c(OC(=O)C(NC(=O)CNC(=O)CNC(=O)OCc5ccccc5)C(C)C)c5c(=O)oc6ccc(C)c7c(=O)oc(c34)c5c67)OC(C)C3OC(c4ccccc4)OC32)C1O (stereo not shown) [compound 115] | ≥ 40 | – | – | response vs control in vivo at 20 mg/kg (P-388 leukemia cells; [2]): 135%
12 | COC1C(O)C(C)OC(OC2C(Oc3cccc4c(OC(=O)CNC(=O)CNC(=O)CNC(=O)OCc5ccccc5)c5c(=O)oc6ccc(C)c7c(=O)oc(c34)c5c67)OC(C)C3OC(c4cccc(F)c4)OC32)C1O (stereo not shown) [compound 116] | ≥ 30 | – | 130 | –
13 | COC1C(O)C(C)OC(OC2C(Oc3cccc4c(OC(=O)CCCCCNC(=O)OCc5ccccc5)c5c(=O)oc6ccc(C)c7c(=O)oc(c34)c5c67)OC(C)C3OC(c4ccccc4)OC32)C1O (stereo not shown) [compound 119] | ≥ 40 | – | – | T/C (%) of MST (P-388 leukemia cells; dose c: 40 mg/kg × 3, i.v. on days 1, 5 and 9): 153%
14 | COC1C(O)C(C)OC(OC2C(Oc3cccc4c(OC(=O)CCNC=O)c5c(=O)oc6ccc(C)c7c(=O)oc(c34)c5c67)OC(C)C3OC(c4cccc([N+](=O)[O-])c4)OC32)C1O (stereo not shown) [compound 120] | ≥ 40 | – | 148 | –
15 | COC1C(O)C(C)OC(OC2C(Oc3cccc4c(OC(=O)C(Cc5c[nH]c6ccccc56)NC(=O)OCc5ccccc5)c5c(=O)oc6ccc(C)c7c(=O)oc(c34)c5c67)OC(C)C3OC(c4ccccc4)OC32)C1O (stereo not shown) [compound 121] | ≥ 40 | – | 146 | –
16 | COC1C(O)C(C)OC(OC2C(Oc3cccc4c(OC(=O)C(Cc5ccccc5)NC(=O)OCc5ccccc5)c5c(=O)oc6ccc(C)c7c(=O)oc(c34)c5c67)OC(C)C3OC(c4ccccc4)OC32)C1O (stereo not shown) [compound 122] | ≥ 40 | – | 135 | –
17 | COC1C(O)C(C)OC(OC2C(Oc3cccc4c(OC(=O)CCNC(=O)c5ccccc5)c5c(=O)oc6ccc(C)c7c(=O)oc(c34)c5c67)OC(C)C3OC(c4ccc(Br)cc4)OC32)C1O (stereo not shown) [compound 123] | ≥ 40 | – | 135 | –
18 | COC1C(O)C(C)OC(OC2C(Oc3cccc4c(OC(=O)C(NC(=O)OCc5ccccc5)C(C)C)c5c(=O)oc6ccc(C)c7c(=O)oc(c34)c5c67)OC(C)C3OC(C)(C)OC32)C1O (stereo not shown) [compound 125] | ≥ 100 | – | – | response vs control in vivo at 50 mg/kg (P-388 leukemia cells; [2]): 140%
19 | COC1C(O)C(C)OC(OC2C(Oc3cccc4c(OC(=O)C(Cc5c[nH]c6ccccc56)NC(=O)OCc5ccccc5)c5c(=O)oc6ccc(C)c7c(=O)oc(c34)c5c67)OC(C)C3OC(C)(C)OC32)C1O (stereo not shown) [compound 126] | ≥ 100 | 150 | – | –
20 | COC1C(O)C(C)OC(OC2C(Oc3cccc4c(OC(=O)C(Cc5ccccc5)NC(=O)OCc5ccccc5)c5c(=O)oc6ccc(C)c7c(=O)oc(c34)c5c67)OC(C)C3OC(c4ccc(Cl)cc4)OC32)C1O (stereo not shown) [compound 127] | ≥ 40 | – | – | response vs control in vivo at 20 mg/kg (P-388 leukemia cells; [2]): 130%
21 | COC1C(O)C(C)OC(OC2C(Oc3cccc4c(OC(=O)C(Cc5ccccc5)NC(=O)OCc5ccccc5)c5c(=O)oc6ccc(C)c7c(=O)oc(c34)c5c67)OC(C)C3OC(C)(C)OC32)C1O (stereo not shown) [compound 128] | ≥ 100 | – | – | response vs control in vivo at 50 mg/kg (P-388 leukemia cells; [2]): 146%
22 | COC1C(O)C(C)OC(OC2C(Oc3cccc4c(OC(=O)CCCCCCCCCCCNC(C)=O)c5c(=O)oc6ccc(C)c7c(=O)oc(c34)c5c67)OC(C)C3OC(C)(C)OC32)C1O (stereo not shown) [compound 129] | ≥ 180 | – | – | response vs control in vivo at 160 mg/kg (P-388 leukemia cells; [2]): 167%
23 | COC1C(O)C(C)OC(OC2C(Oc3cccc4c(OC(=O)CCCCCNC(=O)C(F)(F)F)c5c(=O)oc6ccc(C)c7c(=O)oc(c34)c5c67)OC(C)C3OC(CC(C)=O)OC32)C1O (stereo not shown) [compound 130] | ≥ 180 | – | – | response vs control in vivo at 160 mg/kg (P-388 leukemia cells; [2]): 141%
24 | CCC1(C)O[C@H]2[C@@H](O1)[C@@H](C)O[C@@H](Oc1cccc3c(OC(=O)CC(C)NC(=O)C(F)(F)F)c4c(=O)oc5ccc(C)c6c(=O)oc(c13)c4c56)[C@@H]2O[C@H]1O[C@H](C)[C@H](O)[C@H](OC)[C@H]1O (stereo partly shown) [compound 131] | ≥ 100 | 148 | – | –
25 | COC1C(O)C(C)OC(OC2C(Oc3cccc4c(OC(=O)CCNC(=O)C(F)(F)F)c5c(=O)oc6ccc(C)c7c(=O)oc(c34)c5c67)OC(C)C3OC4(CCCCC4)OC32)C1O (stereo not shown) [compound 132] | ≥ 100 | 146 | 136 | –
26 | COC1C(O)C(C)OC(OC2C(Oc3cccc4c(OC(=O)C(Cc5c[nH]c6ccccc56)NC(=O)OCc5ccccc5)c5c(=O)oc6ccc(C)c7c(=O)oc(c34)c5c67)OC(C)C3OC4(CCCCC4)OC32)C1O (stereo not shown) [compound 133] | ≥ 100 | 139 | – | –
27 | CCC(CN(C)C)C(=O)Oc1c2cccc(OC3OC(C)C4OC(c5ccccc5)OC4C3OC3OC(C)C(O)C(OC)C3O)c2c2oc(=O)c3c(C)ccc4oc(=O)c1c2c43 (stereo not shown) [compound 134] | ≥ 30 | – | – | response vs control in vivo at 10 mg/kg (P-388 leukemia cells; [2]): 192%; response vs control in vivo at 20 mg/kg (P-388 leukemia cells; [2]): 175%
28 | C=CCCC(=O)Oc1c2cccc(O[C@@H]3O[C@H](C)[C@@H]4OC(c5ccccc5)O[C@@H]4[C@H]3O[C@H]3O[C@H](C)[C@H](O)[C@H](OC)[C@H]3O)c2c2oc(=O)c3c(C)ccc4oc(=O)c1c2c43 (stereo partly shown) [compound 192] | ≥ 40 | – | – | response vs control in vivo at 10 mg/kg (P-388 leukemia cells; [2]): 153%; response vs control in vivo at 20 mg/kg (P-388 leukemia cells; [2]): 199%
